Assays:
[1] = system: C57Bl/6 mice; assay: Chronic dosing behavioral tests (activity chamber, elevated plus maze, Y maze, Morris water maze, fear conditioning); assay type: in vivo, mouse; details: for body weight, activity chamber distance, elevated plus maze open arm time, Y maze alternation, Morris water maze learning / mortality: 10 mg/kg/day IP for a month; for fear conditioning, contextual recall on Day 2: 10 mg/kg/day IP, week 4
Experimental: Dosing: (R)-2MeGlu (10 mg/kg), (S)-2MeGlu (10 mg/kg), rac-2MeGln (10 mg/kg), and vehicle (PBS) were administered IP at 10 ml/kg dosing volume daily. The first dose was administered one week prior to behavioral tests and continued for four weeks during the behavioral testing.
Activity Chamber Open Field: The assessment took place in an Open Field Activity Arena as described above for 30 min. The Arena was cleaned with a 1% Virkon solution at the end of the trial. Activity chamber open field assessment was conducted after one week of exposure to compounds or vehicle.
Elevated Plus Maze: The maze was made of acrylonitrile butadiene styrene (ABS) plastic and had two open arms and two close arms that were 30 cm long and 5 cm wide. The center area where the open and close arms meet was 5 cm×5 cm. The open arms had 2 mm lips at the edges, and the closed arms had 15 cm opaque walls. The maze was elevated 50 cm and surrounded by privacy blinds during the test. The maze was illuminated to 7 lux using red light throughout the test. Each mouse was released in the center of the maze and given 5 min to explore the maze. Duration and frequency in each zone of the maze were recorded using Ethovision (Noldus Information Technology, Wageningen, the Netherlands) tracking software. The maze was cleaned with a 1% Virkon solution at the end of the trial. Elevated plus maze was conducted after one week of exposure to compounds or vehicle.
Y Maze Spontaneous Alternation: The Y maze is made of plastic with 3 arms in a “Y” shape. The arms are labelled as Arm A, B, and C; Arm A is 20.32 cm (L)×5 cm (W) 12.7 cm (H), Arm B and C are 15.24 cm (L)×5 cm (W), and 12.7 cm (H). The test is based on the willingness of rodents to explore a novel environment and designed to measure spontaneous alternations in rodents. Each mouse was placed in the center of the maze facing Arm B. The first entry was excluded from data analysis because the animals were led to the initial arm entry by the experimenter. Using an overhead camera, the number of arm entries and alternations were recorded for 5 minutes. An arm entry is when all four paws enter into a new arm of the maze. The apparatus was cleaned with 1% Virkon. Parameters recorded were % alternation and the total number of entries into arms. The Y maze test was conducted after two weeks of exposure to compounds or vehicle.
Morris Water Maze: During the Hidden Platform Training (HPT), mice were given 2 trials, with 1-minute inter-trial-intervals (ITIs) in a circular water tank (172 cm diameter) filled with opaque water at 22.0±1.5° C. Nontoxic tempera paint was used to make the water opaque. A circular platform (17 cm diameter) was submerged 1 cm below the water's surface and placed in one of the four quadrants of the pool (Quadrant 2). The release locations into the pool were randomly chosen to prevent spatial bias and the platform was also relocated during reversal training. We conducted 3 days of training with 2 trials each day for a total of the 6 trials prior to probe 1 (Days 1 to 3). Specifically, mice were given a maximum of 60 s to find the submerged platform per trial. […] After remaining on the platform for 15 s, mice were removed from the platform and placed in a dry cage with a paper towel. This process was repeated for 3 days. On the following day (˜24 hours after the last training trial), the platform was removed from the pool, and a 60 s probe trial was conducted. After acquiring the data for the probe trial, the platform was replaced at the same location, and the mice were given additional two trials of training. Three days (˜72 hours) after the last training trial, a second probe trial was conducted. The platform was relocated to a new quadrant (Quadrant 4) after the second probe trial, and the animals were trained in Reversal Hidden Platform Training (RHPT). The procedures for RHPT were identical to HPT and were conducted for 3 days (Days 7 to 9). A third probe trial was conducted on the following day (˜24 hr). […]

[2] = target: T1, GABAB (B1/B2) (Homo sapiens, UniProt Q9UBS5); assay: functional assay, Ca2+-dependent fluorimetry in RBL cells; assay type: cell-based; details: 100 μM
T1 construct: host or cells: RBL cells
T1 sequence (Q9UBS5 20-961): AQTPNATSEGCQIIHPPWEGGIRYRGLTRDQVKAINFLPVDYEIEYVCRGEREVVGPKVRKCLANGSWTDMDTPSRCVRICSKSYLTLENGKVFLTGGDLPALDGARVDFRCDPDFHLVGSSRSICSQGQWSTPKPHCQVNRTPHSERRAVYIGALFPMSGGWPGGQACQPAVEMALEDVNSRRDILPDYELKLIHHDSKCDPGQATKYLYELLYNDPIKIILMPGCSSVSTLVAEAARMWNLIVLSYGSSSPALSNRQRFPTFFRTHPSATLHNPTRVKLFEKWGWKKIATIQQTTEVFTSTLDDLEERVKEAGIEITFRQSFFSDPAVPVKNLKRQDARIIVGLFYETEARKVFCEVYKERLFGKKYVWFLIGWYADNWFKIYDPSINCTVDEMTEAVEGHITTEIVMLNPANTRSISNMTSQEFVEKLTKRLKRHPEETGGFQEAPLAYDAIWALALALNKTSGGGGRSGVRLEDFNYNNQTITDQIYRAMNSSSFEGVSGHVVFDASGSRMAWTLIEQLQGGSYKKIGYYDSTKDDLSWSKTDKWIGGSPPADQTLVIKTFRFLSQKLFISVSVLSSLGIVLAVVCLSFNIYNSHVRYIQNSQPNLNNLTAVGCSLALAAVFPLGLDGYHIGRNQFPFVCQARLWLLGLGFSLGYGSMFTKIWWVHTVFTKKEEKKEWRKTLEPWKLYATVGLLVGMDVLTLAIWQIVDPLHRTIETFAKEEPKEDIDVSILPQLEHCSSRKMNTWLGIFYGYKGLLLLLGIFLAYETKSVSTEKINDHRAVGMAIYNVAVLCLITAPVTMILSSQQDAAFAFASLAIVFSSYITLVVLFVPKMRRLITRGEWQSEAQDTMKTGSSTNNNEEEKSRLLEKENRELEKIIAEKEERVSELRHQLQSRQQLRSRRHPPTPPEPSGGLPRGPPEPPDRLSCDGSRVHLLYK
T1 sequence (O75899 42-941 partner): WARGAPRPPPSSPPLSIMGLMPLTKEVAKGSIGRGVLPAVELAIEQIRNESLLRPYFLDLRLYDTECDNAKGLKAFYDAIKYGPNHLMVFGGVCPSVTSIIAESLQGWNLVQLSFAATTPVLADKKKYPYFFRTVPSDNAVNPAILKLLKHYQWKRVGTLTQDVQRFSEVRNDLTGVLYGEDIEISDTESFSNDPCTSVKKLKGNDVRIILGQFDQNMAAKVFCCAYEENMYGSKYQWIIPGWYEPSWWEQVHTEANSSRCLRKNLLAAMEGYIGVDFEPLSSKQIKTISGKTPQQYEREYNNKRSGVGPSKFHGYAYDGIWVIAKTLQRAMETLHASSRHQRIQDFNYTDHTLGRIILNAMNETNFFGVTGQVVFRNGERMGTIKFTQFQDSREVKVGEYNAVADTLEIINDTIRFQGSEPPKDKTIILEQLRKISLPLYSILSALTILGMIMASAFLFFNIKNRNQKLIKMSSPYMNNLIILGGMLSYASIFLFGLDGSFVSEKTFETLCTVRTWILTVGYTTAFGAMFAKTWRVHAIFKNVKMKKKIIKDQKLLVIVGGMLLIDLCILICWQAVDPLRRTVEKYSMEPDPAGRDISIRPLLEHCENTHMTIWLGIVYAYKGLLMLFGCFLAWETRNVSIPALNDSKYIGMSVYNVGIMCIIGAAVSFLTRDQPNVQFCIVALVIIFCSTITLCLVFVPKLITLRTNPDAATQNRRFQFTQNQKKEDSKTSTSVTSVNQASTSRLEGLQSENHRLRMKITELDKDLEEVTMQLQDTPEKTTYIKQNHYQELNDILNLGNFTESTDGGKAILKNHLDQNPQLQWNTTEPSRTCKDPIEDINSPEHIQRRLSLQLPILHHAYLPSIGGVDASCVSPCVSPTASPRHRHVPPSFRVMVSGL
Experimental: Functional assays of all GABAA, NMDA (GluN2A-GluN2D) and AMPA (GluA2) receptor subunits were performed by SB Drug Discovery as a part of their CNS discovery panel using FLIPR technology. Briefly, receptor-expressing HEK 293 cell lines were incubated in a red membrane potential dye in HEPES:HBSS pH 7.4 buffer and the fluorescence (λex: 488, λex: 510-570) was monitored over time as the test compounds and/or reference compounds were added to the solution. In agonist assay, only test compounds were added. In positive allosteric modulator assay, cells were preincubated with test compounds and then low concentration (approximately EC20) of an appropriate agonist was added. In antagonist assay, cells were preincubated with test compounds and then high concentration (approximately EC80) of an appropriate agonist was added. For GABAA assays, GABA was used as the agonist, picrotoxin was used as the reference antagonist and allopregnanolone was used as the reference positive allosteric modulator (PAM). […] All compounds were tested at 7 concentration points in triplicate and EC50/IC50 was determined where applicable. […]
All receptor assays were performed exactly as described in Example 1. […] All compounds were tested at 7 concentrations in triplicate and EC50/IC50 was determined where applicable. […]

CC(N)(CCC(N)=O)C(=O)O (racemic) [rac-2MeGln, rac-2-methylglutamine]
body weight, activity chamber distance, elevated plus maze open arm time, Y maze alternation, Morris water maze learning [1]: no significant effect of treatment | mortality [1]: no mortality | fear conditioning, contextual recall on Day 2 [1]: no significant effect of treatments

C[C@@](N)(CCC(=O)O)C(=O)O [(R)-2MeGlu, (R)-2-methylglutamic acid]
body weight, activity chamber distance, elevated plus maze open arm time, Y maze alternation, Morris water maze learning [1]: no significant effect of treatment | mortality [1]: no mortality | fear conditioning, contextual recall on Day 2 [1]: no significant effect of treatments | % of agonist response [2]: 0%

C[C@](N)(CCC(=O)O)C(=O)O [(S)-2MeGlu, (S)-2-methylglutamic acid]
body weight, activity chamber distance, elevated plus maze open arm time, Y maze alternation, Morris water maze learning [1]: no significant effect of treatment | mortality [1]: no mortality | fear conditioning, contextual recall on Day 2 [1]: no significant effect of treatments | % of agonist response [2]: 0%

From patent publication US12589087B2, “Enantiomer selective action on neurotransmission” (The Board of Trustees of the Leland Stanford Junior …, priority 2021, dated 2026)
